# Data as given in paper PMC6148246, “HS-1371, a novel kinase inhibitor of RIP3-mediated necroptosis” (Experimental & Molecular Medicine, 2018).
# Tests used:
# [1] = system: RAW264.7 macrophage cells; test: LPS plus zVAD-induced cytokine expression in RAW264.7 cells (real-time PCR); assay type: cell-based, mouse; details: RAW264.7, LPS + zVAD, 5 and 10 μM, pre 1 h or post 2 h
# Protocol: Total RNA was extracted using the TRIzol reagent (Life Technologies) according to the manufacturer’s instructions. Total RNA (1 μg) from each sample was converted to cDNA using MMLV reverse transcriptase (MGmed, Seoul, Korea). Equal amounts of cDNA product were used in reverse transcription-PCR conducted using the GoTaq® Green Master Mix (Promega). Real-time PCR amplification was performed using iQ™ SYBR® Green Supermix (Bio-rad). […]
# HeLa, L929, and MEF cells were pretreated with HS-1371 (5 μM) for 2 h, and treated with TNF (30 ng/mL) for indicated time points. Cell lysates were analyzed by immunoblotting. […]
# (a) RAW264.7 cells were treated with LPS (1 μg/mL) for indicated time points and cell lysates were analyzed by immunoblotting.
# (b) RAW264.7 cells were pretreated with zVAD (20 μM) for 1 h and then treated with LPS (1 μg/mL) for indicated time points. Cell lysates were analyzed by immunoblotting.
# (c) IL-6, TNF-α, and IL-1β expression levels were determined by RT-PCR analysis. […]
# (d) RAW264.7 cells were pretreated with zVAD (20 μM) and HS-1371 (5 μM) for 1 h and then treated with LPS (1 μg/mL) for 4 h. Cell lysates were analyzed by immunoblotting (left panel).
# IL-1β and IL-6 expression levels were determined by real-time PCR analysis. […]
# (e) IL-1β, IL-6 and TNF-α expression levels were determined by real -time PCR analysis. […]
# H2009 cells = H2009 cells ectopically expressing RIP3, TSZ-induced necroptosis; assay type: cell-based, human; details: H2009 with ectopic RIP3
# Protocol: HEK293T, HT-29, H2009, L929, HeLa, and MEF cells were grown in Dulbecco’s Modified Eagle’s Medium (DMEM) supplemented with 10% fetal bovine serum (FBS). RAW264.7 cells were grown in Roswell Park Memorial Institute (RPMI) 1640 media supplemented with 10% FBS. To generate cell lines stably expressing the RIP3 construct, HeLa and H2009 cells were infected with pLX303-hRIP3 lentivirus.
# Cells were pretreated with DAB or HS-1371 for 2 h and then treated with TSZ (6 h for immunoblotting, 24 h for cell death assay). Cell lysates were analyzed by immunoblotting (left bottom panel), and cell viability was analyzed by MTT assay (right panel). The results are presented as means ± SEM. *P < 0.05, **P < 0.01, ***P < 0.001. c, d HS-1371 had the same effect on mouse cells. L929 (mouse sarcoma, c) and MEF (mouse embryonic fibroblast, d) cells were pretreated with inhibitors and then necroptosis was induced by TNF. Cell lysates were analyzed by immunoblotting (upper panel), and cell viability was analyzed by MTT assay (bottom panel). The results are presented as means ± SEM. *P < 0.05, **P < 0.01, ***P < 0.001
# HT-29 cells = test: TSZ-induced necroptotic cell death in HT-29 cells (MTT assay); assay type: cell-based
# Protocol: Cell viability was determined using tetrazolium dye colorimetric tests (the MTT assay) read at 570 nm. PI staining was quantified using propidium iodide (Cat. No. 51-66211E, BD Biosciences). Lactate dehydrogenase (LDH) leakage was quantified using the […] according to the manufacturer’s instructions. The LDH absorbance was read at 490 nm, and the mean ± STDEV of duplicates is presented.
# (§1) HT-29 cells were pretreated with four tested inhibitors for 2 h and then treated with TSZ (6 h for immunoblotting, 24 h for cell death assay). Cell lysates were analyzed by immunoblotting, and cell viability was analyzed by MTT assay or phase-contrast microscopy. The results are presented as the means ± SEM. *P < 0.05, **P < 0.01, ***P < 0.001. b Protection of necroptosis by HS-1371 treatment is similar with dabrafenib, which abolished downstream events. HT-29 cells were pretreated with various necroptosis inhibitors and HS-1371 before TSZ treatment. Cell lysates were analyzed by immunoblotting, and cell viability was analyzed by MTT assay (left panel). Cells were stained with phospho-MLKL antibody and analyzed by confocal fluorescence microscopy (middle panel), and cell death was further analyzed by FACS analysis after PI staining (right panel). c HS-1371 protects cells from TNF-induced necroptosis in a dose-dependent manner. HT-29 cells were pretreated with indicated concentrations of HS-1371 and then treated with TSZ (6 h for immunoblotting, 24 h for cell death assay). Cell lysates were analyzed by immunoblotting, and cell viability was analyzed by MTT assay or phase-contrast microscopy. The results are presented as means ± SEM. *P < 0.05, **P < 0.01, ***P < 0.001 TEXT PRINTED IN THE PICTURE: (b) TSZ: 20.7 | (b) TSZ + Nec-1: 5.8 | (b) TSZ + DAB: 5.5 | (b) TSZ + 1371: 6.8 DOUBTS OF THE COPYIST ABOUT THIS PICTURE: Panel b, flow cytometry plots: the red gate numbers are printed without a measure or unit, so none is given / Panel b: the 'Untreated' control plot prints 7.7; left out because it is not a substance
# p-MLKL = test: Phospho-MLKL immunofluorescence in HT-29 cells; assay type: cell-based, human; details: HT-29, immunofluorescence
# Protocol: HT-29 cells were fixed in 4% paraformaldehyde for 10 min. To stain phospho-MLKL, cells were permeabilized with 0.25% Triton X-100 for 10 min. After incubation in a blocking buffer (10% fetal bovine serum in DPBS) for 30 min, the primary antibody to phospho-MLKL was incubated overnight at 4 °C, and FITC-conjugated secondary antibody (goat anti-rabbit IgG, 1:250, dilution, Invitrogen) was incubated for 1 h at room temperature. A mounting medium containing DAPI (VECTASHIELD, Cat No. 94010, Vector Laboratories) was used for counterstaining. Representative images were taken by confocal microscope.
# as §1
structure (smiles),measurement,setting,value
"Cc1ccc(Oc2ccnc3cc(-c4cnn(C5CCNCC5)c4)ccc23)cc1 [HS-1371, 7-(1-(Piperidin-4-yl)-1H-pyrazol-4-yl)-4-(p-tolyloxy)quinoline]","IL-1β, IL-6 and TNF-α expression",[1],reduced
same,TSZ-induced necroptosis,H2009 cells,prevented
same,"TNF-induced cell death, pre-treatment and post-treatment","HT-29 cells; HT-29, 5 μM, pretreated 1 h or applied 1 or 2 h after induction",completely inhibited
same,"viability in response to TSZ-mediated necroptosis, dose-dependent","HT-29 cells; HT-29, indicated concentrations, TSZ 24 h",effectively restored
same,"cellular cytotoxicity, post-treatment after TSZ","HT-29 cells; HT-29, post-treatment until approximately 5 h after TSZ",significantly reduced
same,rescue from TSZ-induced cell death,"HT-29 cells; HT-29, pretreated 2 h, TSZ 24 h",rescued
same,p-MLKL detection / translocation after TSZ,p-MLKL,no detection of p-MLKL
